The subject of assay [1] is Plasmodium falciparum. As to the kind of experiment: Resistance index, ratio of IC50 for chloroquine sensitive Plasmodium falciparum MRC-02 schizont stage infected in human erythrocytes to IC50 for chloroquine resistant Plasmodium falciparum RKL9 schizont stage infected in human erythrocytes.
Assay [2] deals with Plasmodium falciparum. Briefly: Inhibition of chloroquine resistant Plasmodium falciparum RKL9 schizont stage infected in human erythrocytes assessed as reduction in […] growth after 24 hrs by Giemsa staining based assay. It is filed as cell-based. The conditions noted are these: RKL9, 24 h.
Assay [3] has as its system Plasmodium falciparum. Briefly: Inhibition of chloroquine sensitive Plasmodium falciparum MRC-02 schizont stage infected in human erythrocytes assessed as reduction in […] growth after 24 hrs by Giemsa staining based assay. The conditions noted are these: MRC-02, 24 h. The assay is classed as cell-based.
Assay [4] concerns Plasmodium berghei. Briefly: Antimalarial activity against Plasmodium berghei infected in Swiss albino mouse assessed as suppression of parasitaemia at 25 mg/kg/day, po for 4 consecutive days starting from 4 hrs post infection measured on day 4 post last dose by Giemsa staining based microscopic method relative to control. The assay is classed as functional.
The test system of assay [5] is Plasmodium berghei. As to the kind of experiment: Antimalarial activity against Plasmodium berghei infected in Swiss albino mouse assessed as increase in mouse survival at 25 mg/kg/day, po for 4 consecutive days starting from 4 hrs post infection measured on day 28 by Giemsa staining based microscopic method. It is filed as functional, organism-based.
The test system of assay [6] is Plasmodium berghei. Briefly: Antimalarial activity against Plasmodium berghei infected in Swiss albino mouse assessed as suppression of parasitaemia at 20 mg/kg/day, po for 4 consecutive days starting from 4 hrs post infection measured on day 4 post last dose by Giemsa staining based microscopic method relative to control. It is filed as functional.
The test system of assay [7] is Plasmodium berghei. As to the kind of experiment: Antimalarial activity against Plasmodium berghei infected in Swiss albino mouse assessed as increase in mouse survival at 20 mg/kg/day, po for 4 consecutive days starting from 4 hrs post infection measured on day 28 by Giemsa staining based microscopic method. The assay is classed as functional, organism-based.

Structures are written as SMILES. Activity calls are given as the source filed them. The rule behind the calls is not given here. Some results are limits rather than exact numbers.

Take `CCN(CC)c1ccc2cc(C3=NNC(c4ccc(F)cc4)C3)c(=O)oc2c1` (centres undefined): the “Ratio IC50” value in the assay on Plasmodium falciparum [1] is listed as 0.76. Besides, the half-maximal inhibitory concentration (IC50) with Plasmodium falciparum [2] is 44.5 µM; in the assay with Plasmodium falciparum [3] it was 34.2 µM.
Regarding `CCN(CC)c1ccc2cc(C3=NN(c4ccccc4)C(c4ccc(O)cc4)C3)c(=O)oc2c1` (centres undefined), in the assay on Plasmodium falciparum [1], the “Ratio IC50” value was determined as 0.69. For the same compound, the figures for the IC50 in the assay on Plasmodium falciparum [2] and with Plasmodium falciparum [3] were 25.3 µM and 17.5 µM, respectively.
Take `CCN(CC)c1ccc2cc(C3=NNC(c4ccccc4)C3)c(=O)oc2c1` (centres undefined): the 50% inhibitory concentration (IC50) in the assay on Plasmodium falciparum [2] and in the assay with Plasmodium falciparum [3] was more than 100 µM throughout.
In the case of `CCN(CC)c1ccc2cc(C3=NN(C(=O)c4ccccc4)C(c4ccc([N+](=O)[O-])cc4)C3)c(=O)oc2c1` (centres undefined), in the assay on Plasmodium falciparum [1], the “Ratio IC50” value stood at 1.6. Also, the IC50 in the assay on Plasmodium falciparum [2] was 2.1 µM; in the assay on Plasmodium falciparum [3], 3.3 µM. The Activity with Plasmodium berghei [4] is reported as 62%. The outcome in the assay with Plasmodium berghei [5] was inactive.
`CCN(CC)c1ccc2cc(C3=NN(c4ccccc4)C(c4ccccc4)C3)c(=O)oc2c1` (centres undefined): the IC50 in the assay on Plasmodium falciparum [2] and in the assay with Plasmodium falciparum [3] was more than 100 µM each time.
Take `CCN(CC)c1ccc2cc(C3=NN(c4ccccc4)C(c4ccc(F)cc4)C3)c(=O)oc2c1` (centres undefined): the “Ratio IC50” value in the assay on Plasmodium falciparum [1] was 0.79. Further, the IC50 was 33.8 µM in the assay on Plasmodium falciparum [2] and 26.9 µM in the assay on Plasmodium falciparum [3].
On to `CCN(CC)c1ccc2cc(C3=NNC(c4ccc(Cl)cc4)C3)c(=O)oc2c1` (centres undefined), for which the “Ratio IC50” value in the assay on Plasmodium falciparum [1] is given as 0.68. Moreover, the figures for the IC50 with Plasmodium falciparum [2] and with Plasmodium falciparum [3] were 27.1 µM and 18.6 µM, respectively.
In the same order, the values of `CCN(CC)c1ccc2cc(C3=NN(C(=O)c4ccccc4)C(c4ccc(O)cc4)C3)c(=O)oc2c1` (centres undefined) are 0.53, 26.7 µM and 14.3 µM.
Turning to `CCN(CC)c1ccc2cc(C3=NNC(c4ccc([N+](=O)[O-])cc4)C3)c(=O)oc2c1` (centres undefined), the “Ratio IC50” value with Plasmodium falciparum [1] came to 0.64. Also, the results for the IC50 in the assay on Plasmodium falciparum [2] and in the assay on Plasmodium falciparum [3] were 30.4 µM and 19.7 µM, respectively.
With `CCN(CC)c1ccc2cc(C3=NN(C(=O)c4ccccc4)C(c4ccccc4)C3)c(=O)oc2c1` (centres undefined), the 50% inhibitory concentration (IC50) with Plasmodium falciparum [2] and in the assay with Plasmodium falciparum [3] was more than 100 µM each time.
As to `CCN(CC)c1ccc2cc(C3=NNC(c4ccc(O)cc4)C3)c(=O)oc2c1` (centres undefined), in the assay on Plasmodium falciparum [1], the “Ratio IC50” value was 0.89. The results for the IC50 in the assay on Plasmodium falciparum [2] and with Plasmodium falciparum [3] were 29.9 µM and 26.7 µM, respectively.
Turning to `CCN(CC)c1ccc2cc(C3=NN(c4ccccc4)C(c4ccc(Cl)cc4)C3)c(=O)oc2c1` (centres undefined), the “Ratio IC50” value in the assay on Plasmodium falciparum [1] came to 1.1. Further, the IC50 with Plasmodium falciparum [2] stood at 9.1 µM; in the assay with Plasmodium falciparum [3], 10.4 µM. Besides, in the assay on Plasmodium berghei [4], the Activity is listed as 34%. Also, in the assay on Plasmodium berghei [5], the outcome was inactive.
On to `CCN(CC)c1ccc2cc(C3=NN(C(=O)c4ccccc4)C(c4ccc(Cl)cc4)C3)c(=O)oc2c1` (centres undefined), for which the concentration for half-maximal inhibition (IC50) with Plasmodium falciparum [2] and in the assay on Plasmodium falciparum [3] was more than 100 µM in each case.
`CCN(CC)c1ccc2cc(C3=NN(c4ccccc4)C(c4ccc([N+](=O)[O-])cc4)C3)c(=O)oc2c1` (centres undefined): the “Ratio IC50” value in the assay on Plasmodium falciparum [1] was 0.5. Further, the half-maximal inhibitory concentration (IC50) in the assay with Plasmodium falciparum [2] was found to be 41.6 µM; with Plasmodium falciparum [3], 20.9 µM.
As to `CCN(CC)c1ccc2cc(C3=NN(C(=O)c4ccccc4)C(c4ccc(F)cc4)C3)c(=O)oc2c1` (centres undefined), the “Ratio IC50” value in the assay with Plasmodium falciparum [1] worked out at 2.2. Also, the figures for the IC50 in the assay with Plasmodium falciparum [2] and in the assay on Plasmodium falciparum [3] were 1.9 µM and 4.2 µM, respectively. The Activity in the assay with Plasmodium berghei [4] is 100%. Also, the outcome in the assay with Plasmodium berghei [5] was Active.
For the compound `CCN(CC)CCCC(C)Nc1ccnc2cc(Cl)ccc12` (centres undefined) [CHLOROQUINE], the Activity in the assay with Plasmodium berghei [6] is recorded as 100%. Further, in the assay on Plasmodium berghei [7], the outcome was Active.

Values taken from ChEMBL document CHEMBL4219189, “Designing novel inhibitors against falcipain-2 of Plasmodium falciparum” (Bioorg Med Chem Lett, 2018).
